Reference: patent US20080194698A1, “Nmda Receptor Antagonists in the Medical Intervention of Metabolic Disorders” (priority 2005, published 2008)
Like-named read-outs stand apart in the source and are kept apart here.

Key:
[1] = doses 100 to 1400 mg; seven of 13 female patients; cited from earlier work
[2] = cited from earlier work
[3] = Oral (maternal and offspring feeding) or neonatal s.c. administration of monosodium glutamate to Wistar rats; assay type: in vivo
Method: The effects of oral administration of GLU were investigated in 32 pregnant rats and their offspring up to day 90 of life, in the animal facilities of the Department of Physiology, Medical School, Universidad Complutense, Madrid, Spain. The study was conducted in accordance with the principles and procedures outlined in the NIH Guide for the Care and Use of Laboratory Animals. Pregnant Wistar rats were kept under controlled conditions of light (12 h light/12 h darkness) and temperature (21+/−2C.°), and were fed with tap water and rat chow (Panlab, Barcelona, Spain) ad libitum.
At day 14 of pregnancy, the animals were divided into four groups (n=8), and either received no extra monosodium glutamate (MSG) (control, group 1), or 2.5 g MSG (group 2) or 5 g MSG per day (group 3), up to the end of the weaning period. 2.5 g, respectively 5 g MSG accounted for some 10%, respectively 20% of dry weight of the average daily food ration. After weaning and gender separation, MSG feeding was continued in the offspring at the same concentrations. A fourth group of animals received no MSG, but their offspring was injected with MSG 4 mg/g body weight s.c., at neonatal age as described earlier (Hermanussen, (1996) loc. cit.). Due to the existence of two gender groups a total of 8 experimental groups were obtained with n=6-9 for each group of females and males. All litter was weighed at weekly intervals, and the amount of food consumed was registered daily. Offspring was sacrificed half at day 30 and the rest at day 90 of life.
Half of the animals were killed by decapitation at day 30 and the other half at the end of the observation period at day 90. Anterior pituitaries were removed, and trunk blood was collected. Serum samples and anterior pituitaries after being weighted, were kept at −80° C., for hormonal determinations by specific radioimmunoassays (RIA). Pituitary homogenates were obtained by manual glass homogenizers, and processed in saline after thawing in the moment of the measurement.
Plasma GH levels and pituitary GH content were determined by RIA as previously described.^21 Pituitary homogenates were diluted 1:5000 for determination. Reagents were kindly provided by the National Institute of Diabetes, Digestive and Kidney Diseases (NIDDK). The standard used was rat GH RP2. The sensitivity of the curve was 2 ng/ml and the intraassay coefficient of variation was 5.7%. Plasma IGF I concentrations were measured using a commercially available rat RIA kit (DSL-2900, Diagnostic Systems Laboratories, INC). The sensitivity of the assay was 20 ng/ml, and the intraassay coefficients of variation for mean serum concentrations of 323, 772 and 1604 ng/ml were 5.9%, 6.1% and 3.8%, respectively.
Values are expressed as mean +/−SEM. […] To determine differences in final weight or hormonal levels a two-way ANOVA test was performed. Differences among groups were subjected to a post-hoc comparison by using Tukey HSD for unequal N test. Statistics were executed using Statistica program. The significance level was determined to be p<0.05.

[4] = Preliminary clinical trial of memantine in obese, otherwise healthy patients; assay type: in vivo, human
Method: The patients experienced an initial loss of body weight of 1 to 3 kg within a 7 day period. Further weight loss is observed during the course of administration over a longer period of time, see appended FIG. 6.
FIG. 6. Percent body weight decline in seven obese and one overweight subjects (6 females, 2 males) during a two month therapeutical trial with memantine (Axura®, Merz Pharmaceuticals GmbH), 5-10 mg in the morning, and 5-20 mg late in the afternoon (Patient […] initial body weight 126.6 kg, […] initial body weight 90.6 kg, Re initial body weight 93.5 kg, Br initial body weight 122.3 kg, Ku initial body weight 111.0 kg, Ho initial body weight 77.6 kg, Sk (male) initial body weight 148.6 kg, Le (male) initial body weight 109.6 kg).
The following preliminary and limited clinical trials have been carried out in the private practice of the inventor. The trials with memantine are carried out since Feb. 2, 2005, in eight obese, but otherwise healthy patients, 6 females, and 2 males (Table 1; FIG. 6).

[5] = 5 g MSG per day, day 90 of life, p<0.01

## CC1(C)O[C@@H]2[C@@H](CO[C@@]3(COS(N)(=O)=O)OC(C)(C)O[C@@H]23)O1 [topiramate]
[1]
  weight loss: > 5 kg
[2]; 64 mg/d, 6 months
  weight loss: 5.0%
[2]; 96 mg, 6 months
  weight loss: 4.8%
[2]; 192 mg, 6 months
  weight loss: 6.3%
[2]; 384 mg, intention-to-treat population, 6 months, placebo 2.6%
  weight loss: 6.3%
[2]; 384-mg dose, completers
  weight loss: up to 8.5%

## N[C@@H](CCC(=O)O)C(=O)[O-].[Na+] [MSG, monosodium glutamate]
[3]; [5]
  food uptake: almost twofold
  water uptake: threefold
[3]; MSG feeding to the mothers maintained during weaning, p<0.01
  weight increments during weaning: subnormal
[3]; MSG injected animals, compared to controls
  appetite: did not show significantly increased appetite
[3]; compared with the GH results, day 30 and day 90 of life
  IGF-1 serum levels: Almost identical results
[3]; high MSG diet (5 g MSG per day), day 30 and day 90 of life, p<0.05
  serum GH levels: as low or even lower than those of MSG injected animals
[3]; maternal feeding with 2.5 g MSG per day, compared to controls
  birth weight of the offspring: no birth weight modification
[3]; maternal feeding with 5 g MSG per day, p<0.01
  birth weight of the offspring: severe birth weight reduction
[3]; medium MSG diet (2.5 g MSG per day) and particularly high MSG diet (5 g MSG per day)
  appetite: marked voracity
[3]; medium MSG diet (2.5 g MSG per day), day 30 of life, p<0.01
  serum GH levels: low
[3]; neonatally injected with MSG 4 mg/g body weight s.c., day 30 and day 90 of life, p<0.05
  GH plasma levels of the offspring: low

## CC12CC3CC(C)(C1)CC(N)(C3)C2 [memantine]
[4]; already at the second day of treatment
  late afternoon or evening binge-eating disorders (patient report): complete disappeared
[4]; initial treatment period
  side effects: Apart from short moments of mild dizziness at the first day, and mild constipation, there were no side effects
[4]; obese patients on memantine
  appetite (patient report): significant decrease in appetite
[4]; patient eight, 93.5 kg, BMI 32.6 before treatment, 56 days of treatment
  Weight (kg) after treatment: 91.3 kg
[4]; patient five, 90.6 kg, BMI 33.3 before treatment, 49 days of treatment
  Weight (kg) after treatment: 86.6 kg
[4]; patient four, 109.6 kg, BMI 31.7 before treatment, 54 days of treatment
  Weight (kg) after treatment: 99.4 kg
[4]; patient one, 111.0 kg, BMI 38.6 before treatment, 56 days of treatment
  Weight (kg) after treatment: 104.4 kg
[4]; patient seven, 77.6 kg, BMI 27.5 before treatment, 77 days of treatment
  Weight (kg) after treatment: 71.4 kg
[4]; patient six, 126.6 kg, BMI 43.3 before treatment, 67 days of treatment
  Weight (kg) after treatment: 111.3 kg
[4]; patient three, 122.3 kg, BMI 42.8 before treatment, 40 days of treatment
  Weight (kg) after treatment: 117.5 kg
[4]; patient two, 148.6 kg, BMI 38.3 before treatment, 25 days of treatment
  Weight (kg) after treatment: 144.8 kg
